Results taken from PMC5218480 (PLoS ONE, 2017).

Tested on: MV-4-11 cells
Assay: Gene expression microarray analysis (Affymetrix PrimeView) and GSEA
Assay type: cell-based, human
Set-up: RFU PODN (11730768_x_at) / Fold change /veh PODN (11730768_x_at) / RFU LINC00158 (11744669_a_at) / Fold change /veh LINC00158 (11744669_a_at) / RFU DUSP10 (11751237_a_at) / Fold change /veh DUSP10 (11751237_a_at) / RFU ID3 (11757404_x_at) / Fold change /veh ID3 (11757404_x_at) / RFU PLEKHG5 (11737974_s_at) / Fold change /veh PLEKHG5 (11737974_s_at) / RFU LRRC4B (11730491_at) / Fold change /veh LRRC4B (11730491_at) / RFU GIMAP4 (11747438_a_at) / Fold change /veh GIMAP4 (11747438_a_at) / RFU KRT8 (11758183_x_at) / Fold change /veh KRT8 (11758183_x_at) / RFU CNN1 (11734310_a_at) / Fold change /veh CNN1 (11734310_a_at) / RFU VPS37D (11726825_at) / Fold change /veh VPS37D (11726825_at) / RFU C10orf10 (11716522_x_at) / Fold change /veh C10orf10 (11716522_x_at) / RFU KIR2DL2 /// KIR2DL4 /// KIR2DL5A /// KIR2DL5B /// KIR2DS1 /// KIR2DS2 /// KIR2DS3 /// KIR2DS4 /// KIR3DL3 /// KIR3DL3 /// KIR3DS1 (11738374_at) / Fold change /veh KIR2DL2 /// KIR2DL4 /// KIR2DL5A /// KIR2DL5B /// KIR2DS1 /// KIR2DS2 /// KIR2DS3 /// KIR2DS4 /// KIR3DL3 /// KIR3DL3 /// KIR3DS1 (11738374_at) / RFU C1QL1 (11718748_at) / Fold change /veh C1QL1 (11718748_at) / RFU TMPRSS4 (11747572_a_at) / Fold change /veh TMPRSS4 (11747572_a_at) / RFU HAMP (11756126_x_at) / Fold change /veh HAMP (11756126_x_at) / RFU RNFT2 (11725882_a_at) / Fold change /veh RNFT2 (11725882_a_at) / RFU NR4A2 (11747474_a_at) / Fold change /veh NR4A2 (11747474_a_at) / RFU ABCC12 (11746883_a_at) / Fold change /veh ABCC12 (11746883_a_at) / RFU TMEM136 (11760407_x_at) / Fold change /veh TMEM136 (11760407_x_at) / RFU CLDN22 /// WWC2 (11732394_at) / Fold change /veh CLDN22 /// WWC2 (11732394_at) / RFU HLA-DPB1 (11760878_x_at) / Fold change /veh HLA-DPB1 (11760878_x_at) / RFU SPINT1 (11716480_a_at) / Fold change /veh SPINT1 (11716480_a_at) / RFU GAP43 (11754022_s_at) / Fold change /veh GAP43 (11754022_s_at) / RFU A4GNT (11735810_at) / Fold change /veh A4GNT (11735810_at) / RFU PRB3 (11715151_x_at) / Fold change /veh PRB3 (11715151_x_at) / RFU TUBB4B (11761932_at) / Fold change /veh TUBB4B (11761932_at) / RFU CAPN14 (11732068_a_at) / Fold change /veh CAPN14 (11732068_a_at) / RFU TMCC2 (11721928_a_at) / Fold change /veh TMCC2 (11721928_a_at) / RFU IRGQ (11745062_a_at) / Fold change /veh IRGQ (11745062_a_at) / RFU FAM174B (11720279_a_at) / Fold change /veh FAM174B (11720279_a_at) / RFU TMPRSS4 (11748680_a_at) / Fold change /veh TMPRSS4 (11748680_a_at) / RFU FAM212B (11763350_a_at) / Fold change /veh FAM212B (11763350_a_at) / RFU PLEKHG5 (11743358_a_at) / Fold change /veh PLEKHG5 (11743358_a_at) / RFU ZSCAN30 (11745921_a_at) / Fold change /veh ZSCAN30 (11745921_a_at) / RFU CMKLR1 (11741424_a_at) / Fold change /veh CMKLR1 (11741424_a_at) / RFU LOC101060620 /// MAPK8IP1 (11723275_at) / Fold change /veh LOC101060620 /// MAPK8IP1 (11723275_at) / RFU SPTSSB (11747773_x_at) / Fold change /veh SPTSSB (11747773_x_at) / RFU PRSS12 (11739890_at) / Fold change /veh PRSS12 (11739890_at) / RFU BIN1 (11741810_x_at) / Fold change /veh BIN1 (11741810_x_at) / RFU WNT11 (11732464_a_at) / Fold change /veh WNT11 (11732464_a_at) / RFU C10orf10 (11716521_a_at) / Fold change /veh C10orf10 (11716521_a_at) / RFU C5orf56 (11738089_at) / Fold change /veh C5orf56 (11738089_at) / RFU CYB561 (11721691_x_at) / Fold change /veh CYB561 (11721691_x_at) / RFU ANKRD19P (11752326_a_at) / Fold change /veh ANKRD19P (11752326_a_at) / RFU OR2T12 /// OR2T33 /// OR2T8 (11738714_s_at) / Fold change /veh OR2T12 /// OR2T33 /// OR2T8 (11738714_s_at) / RFU VCAN (11748164_a_at) / Fold change /veh VCAN (11748164_a_at) / RFU JSRP1 (11732532_at) / Fold change /veh JSRP1 (11732532_at) / RFU KRTAP10-11 (11738290_x_at) / Fold change /veh KRTAP10-11 (11738290_x_at) / RFU MYO3A (11730013_a_at) / Fold change /veh MYO3A (11730013_a_at) / RFU EBF3 (11725865_a_at) / Fold change /veh EBF3 (11725865_a_at) / RFU CAMK2N1 (11719241_x_at) / Fold change /veh CAMK2N1 (11719241_x_at) / RFU C5orf56 (11738088_a_at) / Fold change /veh C5orf56 (11738088_a_at) / RFU OLFML3 (11715873_a_at) / Fold change /veh OLFML3 (11715873_a_at) / RFU LOC100653217 /// NTM (11731650_a_at) / Fold change /veh LOC100653217 /// NTM (11731650_a_at) / RFU MAPK11 (11762145_a_at) / Fold change /veh MAPK11 (11762145_a_at) / RFU FIZ1 (11724087_x_at) / Fold change /veh FIZ1 (11724087_x_at) / RFU OASL (11726364_x_at) / Fold change /veh OASL (11726364_x_at) / RFU SOX15 (11748057_x_at) / Fold change /veh SOX15 (11748057_x_at) / RFU CD79A (11719716_a_at) / Fold change /veh CD79A (11719716_a_at) / RFU HIST1H1D (11736915_at) / Fold change /veh HIST1H1D (11736915_at) / RFU CASKIN2 (11723855_a_at) / Fold change /veh CASKIN2 (11723855_a_at) / RFU LOC730098 (11760151_x_at) / Fold change /veh LOC730098 (11760151_x_at) / RFU OR4N2 (11742367_at) / Fold change /veh OR4N2 (11742367_at) / RFU PRRT2 (11749266_a_at) / Fold change /veh PRRT2 (11749266_a_at) / RFU SNX32 (11753110_a_at) / Fold change /veh SNX32 (11753110_a_at) / RFU CDHR5 (11726645_a_at) / Fold change /veh CDHR5 (11726645_a_at) / RFU RCAN1 (11760418_a_at) / Fold change /veh RCAN1 (11760418_a_at) / RFU FAM167A (11723789_a_at) / Fold change /veh FAM167A (11723789_a_at) / RFU FAM26E (11764081_at) / Fold change /veh FAM26E (11764081_at) / RFU ISYNA1 (11749810_s_at) / Fold change /veh ISYNA1 (11749810_s_at) / RFU ACY1 (11761880_at) / Fold change /veh ACY1 (11761880_at) / RFU 11764098_at / Fold change /veh 11764098_at / RFU SAMD14 (11745864_x_at) / Fold change /veh SAMD14 (11745864_x_at) / RFU NPB (11741838_a_at) / Fold change /veh NPB (11741838_a_at) / RFU TMPRSS6 (11731388_a_at) / Fold change /veh TMPRSS6 (11731388_a_at) / RFU KRTAP10-2 (11738614_at) / Fold change /veh KRTAP10-2 (11738614_at) / RFU ARHGAP8 /// PRR5-ARHGAP8 (11727945_x_at) / Fold change /veh ARHGAP8 /// PRR5-ARHGAP8 (11727945_x_at) / RFU KRTAP5-7 /// NADSYN1 (11734609_at) / Fold change /veh KRTAP5-7 /// NADSYN1 (11734609_at) / RFU RASL12 (11751679_a_at) / Fold change /veh RASL12 (11751679_a_at) / RFU CDKN2B (11736163_a_at) / Fold change /veh CDKN2B (11736163_a_at) / RFU PRF1 (11729649_at) / Fold change /veh PRF1 (11729649_at) / RFU, ZNF638 /// ZNF638-IT1 / Fold change vs veh, ZNF638 /// ZNF638-IT1 / RFU, PANK3 / Fold change vs veh, PANK3 / RFU, SH3YL1 / Fold change vs veh, SH3YL1 / RFU, ZEB2 / Fold change vs veh, ZEB2 / RFU, NRIP1 / Fold change vs veh, NRIP1 / RFU, PTTG1IP / Fold change vs veh, PTTG1IP / RFU, CAPN2 / Fold change vs veh, CAPN2 / RFU, MED14 / Fold change vs veh, MED14 / RFU, SNORA58 / Fold change vs veh, SNORA58 / RFU, C1orf63 / Fold change vs veh, C1orf63 / RFU, LRRFIP1 / Fold change vs veh, LRRFIP1 / RFU, NDUFAF7 / Fold change vs veh, NDUFAF7 / RFU, SLC12A2 / Fold change vs veh, SLC12A2 / RFU, IBTK / Fold change vs veh, IBTK / RFU, ESF1 / Fold change vs veh, ESF1 / Fold change vs veh, TMEM50B / RFU, TAOK1 / Fold change vs veh, TAOK1 / RFU, ACBD3 / Fold change vs veh, ACBD3 / RFU, TMA16 / Fold change vs veh, TMA16 / RFU, RWDD3 / Fold change vs veh, RWDD3 / RFU, BCAT1 / Fold change vs veh, BCAT1 / RFU, EDEM3 / Fold change vs veh, EDEM3 / RFU, TMEM33 / Fold change vs veh, TMEM33 / RFU, WDR75 / Fold change vs veh, WDR75 / RFU, AHCTF1 / Fold change vs veh, AHCTF1 / RFU, TFRC / Fold change vs veh, TFRC / RFU, ZDHHC17 / Fold change vs veh, ZDHHC17 / RFU, NOM1 / Fold change vs veh, NOM1 / RFU, ARL8B / Fold change vs veh, ARL8B / RFU, ZBTB11 / Fold change vs veh, ZBTB11 / RFU, TAMM41 / Fold change vs veh, TAMM41 / RFU, KIAA1704 /// LOC100996395 / Fold change vs veh, KIAA1704 /// LOC100996395 / RFU, ING1 / Fold change vs veh, ING1 / RFU, TRMT61B / Fold change vs veh, TRMT61B / RFU, FUBP3 / Fold change vs veh, FUBP3 / RFU, TP53 / Fold change vs veh, TP53 / RFU, TNKS2 / Fold change vs veh, TNKS2 / RFU, ZFP14 / Fold change vs veh, ZFP14 / RFU, ACTR2 / Fold change vs veh, ACTR2 / RFU, PPP3R1 / Fold change vs veh, PPP3R1 / RFU, PIK3R1 / Fold change vs veh, PIK3R1 / RFU, HNRNPA1 / Fold change vs veh, HNRNPA1 / RFU, RNF170 / Fold change vs veh, RNF170 / RFU, ZNF28 / Fold change vs veh, ZNF28 / RFU, RNGTT / Fold change vs veh, RNGTT / RFU, OGT / Fold change vs veh, OGT / RFU, BRD1 / Fold change vs veh, BRD1 / RFU, MARS / Fold change vs veh, MARS / RFU, ZNF655 / Fold change vs veh, ZNF655 / RFU, FAHD1 / Fold change vs veh, FAHD1 / RFU, BDP1 / Fold change vs veh, BDP1 / RFU, LRRCC1 / Fold change vs veh, LRRCC1 / RFU, ARID1A / Fold change vs veh, ARID1A / RFU, ZNF146 / Fold change vs veh, ZNF146 / RFU, ZNF330 / Fold change vs veh, ZNF330 / RFU, GPN3 / Fold change vs veh, GPN3 / RFU, C9orf123 / Fold change vs veh, C9orf123 / RFU, N4BP2L2 / Fold change vs veh, N4BP2L2 / RFU, ARFIP1 / Fold change vs veh, ARFIP1 / RFU, FAM179B / Fold change vs veh, FAM179B / RFU, BCL10 / Fold change vs veh, BCL10 / RFU, UHRF1BP1L / Fold change vs veh, UHRF1BP1L / RFU, BET1 / Fold change vs veh, BET1 / RFU, CNOT2 / Fold change vs veh, CNOT2 / RFU, ZNF268 / Fold change vs veh, ZNF268 / Fold change vs veh, ZNF507 / RFU, DGCR2 / Fold change vs veh, DGCR2 / RFU, WDSUB1 / Fold change vs veh, WDSUB1 / Fold change vs veh, HSP90B1 /// MIR3652 / RFU, ADSS / Fold change vs veh, ADSS / RFU, GK / Fold change vs veh, GK / RFU, ZNF148 / Fold change vs veh, ZNF148 / RFU, TAF9 / Fold change vs veh, TAF9 / RFU, SLC1A5 / Fold change vs veh, SLC1A5 / RFU, SLMO2 / Fold change vs veh, SLMO2 / RFU, ABCC4 / Fold change vs veh, ABCC4 / RFU, LOC101060439 /// RAP1B / Fold change vs veh, LOC101060439 /// RAP1B / RFU, RFX7 / Fold change vs veh, RFX7 / RFU, GTPBP10 / Fold change vs veh, GTPBP10 / RFU, CNEP1R1 / Fold change vs veh, CNEP1R1 / RFU, BIVM-ERCC5 /// ERCC5 / Fold change vs veh, BIVM-ERCC5 /// ERCC5 / RFU, ILF3 / Fold change vs veh, ILF3 / RFU 11762660_at / Fold change /veh 11762660_at / RFU VCAN (11757783_s_at) / Fold change /veh VCAN (11757783_s_at) / RFU DDX43 (11728927_at) / Fold change /veh DDX43 (11728927_at) / RFU KRT8 (11758188_x_at) / Fold change /veh KRT8 (11758188_x_at) / RFU NKD1 (11759106_at) / Fold change /veh NKD1 (11759106_at) / RFU SRD5A1 (11742802_a_at) / Fold change /veh SRD5A1 (11742802_a_at) / RFU TPSAB1 /// TPSB2 (11721975_s_at) / Fold change /veh TPSAB1 /// TPSB2 (11721975_s_at) / RFU GSTM3 (11746129_a_at) / Fold change /veh GSTM3 (11746129_a_at) / RFU IL23R (11737362_x_at) / Fold change /veh IL23R (11737362_x_at) / RFU TMEM51 (11727254_a_at) / Fold change /veh TMEM51 (11727254_a_at) / RFU PIWIL2 (11732686_x_at) / Fold change /veh PIWIL2 (11732686_x_at) / RFU ORM1 (11744905_x_at) / Fold change /veh ORM1 (11744905_x_at) / RFU CCDC152 (11743942_at) / Fold change /veh CCDC152 (11743942_at) / RFU ECM1 (11717891_a_at) / Fold change /veh ECM1 (11717891_a_at) / RFU IL23R (11748794_a_at) / Fold change /veh IL23R (11748794_a_at) / RFU TNFAIP8L3 (11732012_x_at) / Fold change /veh TNFAIP8L3 (11732012_x_at) / RFU MBOAT4 (11741988_at) / Fold change /veh MBOAT4 (11741988_at) / RFU 11764193_at / Fold change /veh 11764193_at / RFU TMEM53 (11763286_at) / Fold change /veh TMEM53 (11763286_at) / RFU MAGEB2 (11727129_at) / Fold change /veh MAGEB2 (11727129_at) / RFU TMEM200A (11744735_a_at) / Fold change /veh TMEM200A (11744735_a_at) / RFU CCDC152 (11751479_a_at) / Fold change /veh CCDC152 (11751479_a_at) / RFU FAM211A (11726209_a_at) / Fold change /veh FAM211A (11726209_a_at) / RFU RGS16 (11746705_a_at) / Fold change /veh RGS16 (11746705_a_at) / RFU VCAN (11755009_s_at) / Fold change /veh VCAN (11755009_s_at) / RFU RHOB (11743442_s_at) / Fold change /veh RHOB (11743442_s_at) / RFU RGS16 (11720943_a_at) / Fold change /veh RGS16 (11720943_a_at) / RFU RGS16 (11720944_at) / Fold change /veh RGS16 (11720944_at) / RFU, VPS4B / Fold change vs veh, VPS4B / RFU, CREB1 / Fold change vs veh, CREB1 / RFU, DNAJC13 / Fold change vs veh, DNAJC13 / RFU, GNAQ / Fold change vs veh, GNAQ / RFU, CDK5R1 / Fold change vs veh, CDK5R1 / RFU, ZRANB3 / Fold change vs veh, ZRANB3 / RFU, CUL4A / Fold change vs veh, CUL4A / RFU, CCNY / Fold change vs veh, CCNY / RFU, UFL1 / Fold change vs veh, UFL1 / RFU, COG3 / Fold change vs veh, COG3 / RFU, DIAPH2 / Fold change vs veh, DIAPH2 / RFU, SKA2 / Fold change vs veh, SKA2 / RFU, AFF3 / Fold change vs veh, AFF3 / RFU, LMF1 / Fold change vs veh, LMF1 / RFU, IPO11 / Fold change vs veh, IPO11 / RFU, DFFB / Fold change vs veh, DFFB / RFU, FOXP1 / Fold change vs veh, FOXP1 / RFU, CARD8 / Fold change vs veh, CARD8 / RFU, STRN3 / Fold change vs veh, STRN3 / RFU, ADK / Fold change vs veh, ADK / RFU, RASSF2 / Fold change vs veh, RASSF2 / RFU, WIPF1 / Fold change vs veh, WIPF1 / RFU, LARP1B / Fold change vs veh, LARP1B / RFU, RASA1 / Fold change vs veh, RASA1 / RFU, RB1 / Fold change vs veh, RB1 / RFU, PPFIA1 / Fold change vs veh, PPFIA1 / RFU, MAT2A / Fold change vs veh, MAT2A / RFU, CCT5 / Fold change vs veh, CCT5 / RFU, WDR92 / Fold change vs veh, WDR92 / RFU, CUX1 / Fold change vs veh, CUX1 / RFU, TTC7A / Fold change vs veh, TTC7A / RFU, TMEM135 / Fold change vs veh, TMEM135 / RFU, DEPTOR / Fold change vs veh, DEPTOR / RFU, CPM / Fold change vs veh, CPM / RFU, DNAJB6 / Fold change vs veh, DNAJB6 / RFU, CACNA2D3 / Fold change vs veh, CACNA2D3 / RFU, DTX4 / Fold change vs veh, DTX4 / RFU, TFCP2 / Fold change vs veh, TFCP2 / RFU, GMCL1 /// GMCL1P1 / Fold change vs veh, GMCL1 /// GMCL1P1 / RFU, AEBP2 / Fold change vs veh, AEBP2 / RFU, SNHG1 /// SNORD22 /// SNORD25 /// SNORD26 /// SNORD27 /// SNORD28 /// SNORD29 /// SNORD31 / Fold change vs veh, SNHG1 /// SNORD22 /// SNORD25 /// SNORD26 /// SNORD27 /// SNORD28 /// SNORD29 /// SNORD31 / Fold change (Aza/veh), C12orf56 (ProbeSet 11735607_a_at) / Fold change (ACY-1035/veh), C12orf56 (ProbeSet 11735607_a_at) / Fold change (Aza/veh), FGFR1OP (ProbeSet 11751329_s_at) / Fold change (ACY-1035/veh), FGFR1OP (ProbeSet 11751329_s_at) / Fold change (Aza/veh), VPS36 (ProbeSet 11739960_a_at) / Fold change (ACY-1035/veh), VPS36 (ProbeSet 11739960_a_at) / RFU SYPL1 (11715823_x_at) / Fold change /veh SYPL1 (11715823_x_at) / RFU IGFBP7 (11715501_s_at) / Fold change /veh IGFBP7 (11715501_s_at) / RFU REEP3 (11722064_at) / Fold change /veh REEP3 (11722064_at) / RFU IGLL1 (11728026_x_at) / Fold change /veh IGLL1 (11728026_x_at): dose or concentration left out as unconfirmed
Conditions: MV-4-11 cells, 48 hours

SMILES: Nc1ccc(-c2cccs2)cc1NC(=O)c1ccc2c(c1)cc(C1CC1)n2CCN1CCOCC1 [ACY-1035]
- RFU OLFML3 (11715873_a_at): 13.14 RFU
